Reference: patent US9296720B2, “Carboxamide-substituted heteroaryl-pyrazoles and the use thereof” (AiCuris GmbH & Co. KG, priority 2011, dated 2016)

Experiments:
Format in all cases: cell-based
HIV-1NL4-3 Wild Type = assay: Luminescence reduction assay, MT4 cells infected with HIV-1NL4-3 luciferase reporter virus, wild type; conditions: Human immunodeficiency virus 1, MT4, MT4 cells, 2% FCS
Description: (§1) For this assay, HIV-1NL4-3 reporter viruses are used, which carry the luciferase164 gene (lu164) instead of the nef gene. The viruses are generated by transfection of 293T cells with the corresponding proviral pNL4-3 plasmid (Lipofectamine Reagent, Invitrogen, Karlsruhe, Germany). Starting from the proviral plasmid-DNA, viruses with defined resistance mutations in the reverse transcriptase gene are produced with the “QuikChange II XL Site-Directed Mutagenesis Kit” (Stratagene, Cedar Creek, Tex., USA). Among other things, the following mutations are generated: A98G, A98G-K103N-V108I, A98S, F227C, F227L, G190A, G190S, K101E, K101Q-K103N, K103N, K103N-F227L, K103N-G190A, K103N-G190S, K103N-M230L, K103N-N348I, K103N-P225H, K103N-V108I, K103N-V108I-P225H, K103N-V179F-Y181C, K103N-Y181C, K103N-Y181C-G190A, L100I, L100I-K103N, L100I-K103N-V179I-Y181C, L100I-K103N-Y181C, L234I, N348I, P225H, P236L, V106A, V106A-E138K, V106A-F227C, V106A-F227L, V106I, V106I-Y188L, V106M, V108I, V179F-Y181C, V179I, V179I-Y181C, Y181C, Y181C-G190A, Y181C-M230L, Y181I, Y188L. MT4 cells infected with these reporter viruses (NIH AIDS Research and Reference Reagent Program) secrete luciferase into the medium, which makes possible the luminometric quantification of the virus replication.
(§2) For the batch of a 96-well MTP, 3 million MT4 cells are pelletized, suspended in 1 ml of RPMI 1640 medium without phenol red (Invitrogen, Karlsruhe, Germany)/10% FCS/2 mmol of L-glutamine/1% Pen/Strep (Invitrogen, Karlsruhe, Germany), and incubated together with a suitable amount of the corresponding HIV-1NL4-3 reporter virus for 2 hours at 37° C. (pellet infection). Non-adsorbed viruses are then washed out with PBS, the infected cells are pelletized again, and suspended in 8 ml of RPM 11640 medium without phenol red/2% or 10% FCS/2 mmol of L-glutamine/1% Pen/Strep. Therefrom, 80 μl per well is pipetted into a white 96-well MTP in 20 μl of test substance in a suitable dilution. In order to avoid boundary effects, the edge wells of the MTP are not used for substance dilutions. The second vertical row of the MTP contains only infected cells (virus control), and the eleventh vertical row contains only non-infected cells (cell control) in each case in RPMI 1640 medium without phenol red/2% or 10% FCS/2 mmol of L-glutamine/1% Pen/Strep. The other wells of the MTP contain the compounds according to the invention in different concentrations starting from the third vertical row, from which dilution of the test substances is carried out 3^7 times in three steps up to the tenth vertical row. The test substances are dissolved in DMSO, whereby the DMSO final concentration in the test batch is ultimately 1%. The test batches are incubated for 5 days at 37° C./5% CO2, and are luminometrically evaluated after the addition of 15 μl of Lu164-buffer (65 mmol of NaCl, 300 mmol of MES, pH 5.8, 5 mmol of glutathione and 1:200 coelenterazine (5 mg/ml in 30 μM of glutathione/DMSO) (P.J.K. GmbH, Kleinblittersdorf, Germany)). In the virus control, the resulting values are in the range of 1 million RLUs (relative light units), and in the cell control, the resulting values are 300 to 400 RLUs. The EC50 values of the test substances are determined as the concentration of the treated infected cells, in which the virus replication measured in RLUs is 50% of the untreated infected cells.

HIV-1NL4-3 K103N-Y181C = assay: Luminescence reduction assay, MT4 cells infected with HIV-1NL4-3 luciferase reporter virus, RT mutant K103N-Y181C; conditions: Human immunodeficiency virus 1, MT4, read-out: EC50 (μM) MT4 Cells HIV-1NL4-3 K103N-Y181C 2% FCS, MT4 cells, HIV-1NL4-3 K103N-Y181C, 2% FCS
Description: as §1, §2

HIV-1LAI Wild Type = assay: AlamarBlue viability assay, HIV-1LAI-infected MT4 cells; conditions: Human immunodeficiency virus 1, MT4, MT4 cells, 10% FCS
Description: For the batch of a 96-well MTP, 3 million PBLs are pelletized, suspended in 1 ml of RPMI 1640 medium/10% FCS/2 mmol of L-glutamine/1% Pen/Strep, and incubated together with a suitable amount of HIV-1LA1 (NIH AIDS Research & Reference Reagent Program, Germantown, USA) for 2 hours at 37° C. (pellet infection). Non-adsorbed viruses are then washed out with PBS, the infected cells are pelletized again, and suspended in 18 ml of RPMI 1640 medium/10% FCS/2 mmol of L-glutamine/1% Pen/Strep/interleukin-2 (40 U/ml). Therefrom, 180 μl per well is pipetted into a white 96-well MTP in 20 μl of test substance in a suitable dilution. As an alternative, after preparation of the substance dilutions, the HIV is added by pipetting in the MTP together with the cells and is no longer washed out (supernatant infection). In order to avoid boundary effects, the edge wells of the MTP are not used for substance dilutions. The second vertical row of the MTP contains only infected cells (virus control), and the eleventh vertical row contains only non-infected cells (cell control) in each case in RPMI 1640 medium/10% FCS/2 mmol of L-glutamine/1% Pen/Strep/interleukin-2 (40 U/ml). The other wells of the MTP contain the compounds according to the invention in different concentrations starting from the third vertical row, from which dilution of the test substances is carried out 3^7 times in three steps up to the tenth vertical row. The test substances are dissolved in DMSO, whereby the DMSO final concentration in the test batch is ultimately 1%. The test batches are incubated at 37° C./5% CO2. After 5 and 7 days, in each case 50 μl of cell-free supernatant is drawn off from each well in order to determine the amount of p24 contained by means of p24 ELISA (HIV-1 p24^CA Antigen Capture Assay Kit, NCI-Frederick Cancer Research and Development Center, Frederick, USA). From the resulting values of the photometric analysis (450/620 nm), the EC50 values of the test substances are determined as the concentration of the treated infected cells, in which the amount of p24 is 50% of the untreated infected cells.
As an alternative, MT4 cells are used for testing test substances instead of PBLs. HIV-1LA1-infected MT4 cells (MOI 0.01, supernatant infection) are incubated according to the above-described pattern in RPMI 1640 medium with 2% or 10% FCS/2 mmol of L-glutamine/1% Pen/Strep in the presence of test substances for 5 days at 37° C./5% CO2 (20 μl of substance dilution and 80 μl of cells/virus per well). Then, 10 μl of AlamarBlue (Invitrogen, Karlsruhe, Germany) is added to each well, and MTPs are incubated for 3 hours at 37° C., before the fluorimetric analysis is done (544/590 nm). The resulting values are approximately 30,000 in the case of untreated, non-infected cells, and approximately 6,000 in the case of untreated infected cells. In the low concentration range, the EC50 values of the test substances are determined as the concentration of the treated infected cells, in which the fluorescence is 50% of the untreated non-infected cells (in each case relative to the values of the untreated infected cells). In addition, in the high concentration range, the CC50 values of the test substances are determined as the concentration of the treated infected cells, in which the fluorescence is 50% of the untreated, non-infected cells (in each case relative to the values of the untreated infected cells).

SMILES	EC50 (HIV-1NL4-3 Wild Type) [µM]	EC50 (HIV-1NL4-3 K103N-Y181C) [µM]	EC50 (HIV-1LAI Wild Type) [µM]
O=C1CN(C(=O)c2cc(-c3cc(F)cc(Cl)c3)n(-c3ccccn3)n2)CN1 [Example 1, 1-{[5-(3-Chloro-5-fluorophenyl)-1-(pyridin-2-yl)-1H-pyrazol-3-yl]carbonyl}imidazolidin-4-one]	0.345	> 3.3	> 3.3
O=C1CN(C(=O)c2cc(-c3cc(F)cc(Cl)c3)n(-c3cccc(Cl)n3)n2)CN1 [Example 2, 1-{[5-(3-Chloro-5-fluorophenyl)-1-(6-chloropyridin-2-yl)-1H-pyrazol-3-yl]carbonyl}imidazolidin-4-one]	0.272	> 3.3	> 3.3
O=C1CN(C(=O)c2cc(-c3cc(F)cc(Cl)c3)n(-c3cccnc3)n2)CN1 [Example 3, 1-{[5-(3-Chloro-5-fluorophenyl)-1-(pyridin-3-yl)-1H I-pyrazol-3-yl]carbonyl}imidazolidin-4-one]	0.006	0.067	0.028
O=C1CN(C(=O)c2cc(-c3cc(F)cc(Cl)c3)n(-c3cccnc3)n2)CCN1 [Example 4, 4-{[5-(3-Chloro-5-fluorophenyl)-1-(pyridin-3-yl)-1H-pyrazol-3-yl]carbonyl}piperazin-2-one]	0.036	0.132	0.108
O=C(c1cc(-c2cc(F)cc(Cl)c2)n(-c2cccnc2)n1)N1CCSC1 [Example 5, [5-(3-Chloro-5-fluorophenyl)-1-(pyridin-3-yl)-1H-pyrazol-3-yl](1,3-thiazolidin-3-yl)methanone]	0.023	1.32	0.533
O=C1CN(C(=O)c2cc(-c3cc(F)cc(Cl)c3)n(-c3ccc(Cl)nc3)n2)CN1 [Example 7, 1-{[5-(3-Chloro-5-fluorophenyl)-1-(6-chloropyridin-3-yl)-1H-pyrazol-3-yl]carbonyl}imidazolidin-4-one]	0.01	0.018	0.064
O=C1CN(C(=O)c2cc(-c3cc(F)cc(Cl)c3)n(-c3ccc(Cl)nc3)n2)CCN1 [Example 8, 4-{[5-(3-Chloro-5-fluorophenyl)-1-(6-chloropyridin-3-yl)-1H-pyrazol-3-yl]carbonyl}piperazin-2-one]	0.06	0.29	0.205
O=C1CN(C(=O)c2cc(-c3cc(F)cc(Cl)c3)n(-c3cncc(Cl)c3)n2)CN1 [Example 9, 1-{[5-(3-Chloro-5-fluorophenyl)-1-(5-chloropyridin-3-yl)-1H-pyrazol-3-yl]carbonyl}imidazolidin-4-one]	0.035	0.32	0.149
O=C1CN(C(=O)c2cc(-c3cc(F)cc(Cl)c3)n(-c3cncc(Cl)c3)n2)CCN1 [Example 10]	0.149	> 3.3	1.71
Cc1ccc(-n2nc(C(=O)N3CNC(=O)C3)cc2-c2cc(F)cc(Cl)c2)cn1 [Example 11, 1-{[5-(3-Chloro-5-fluorophenyl)-1-(6-methylpyridin-3-yl)-1H-pyrazol-3-yl]carbonyl}imidazolidin-4-one]	0.007	0.061	0.057
Nc1ccc(-n2nc(C(=O)N3CNC(=O)C3)cc2-c2cc(F)cc(Cl)c2)cn1 [Example 12, 1-{[1-(6-Aminopyridin-3-yl)-5-(3-chloro-5-fluorophenyl)-1H-pyrazol-3-yl]carbonyl}imidazolidin-4-one]	0.189	0.377	1.79
O=C1CN(C(=O)c2cc(-c3cc(F)cc(Cl)c3)n(-c3ccncc3)n2)CN1 [Example 13, 1-{[5-(3-Chloro-5-fluorophenyl)-1-(pyridin-4-yl)-1H-pyrazol-3-yl]carbonyl}imidazolidin-4-one]	0.323	0.88	1.34
O=C1CN(C(=O)c2cc(-c3cc(F)cc(Cl)c3)n(-c3ccnc(Cl)c3)n2)CN1 [Example 14, 1-{[5-(3-Chloro-5-fluorophenyl)-1-(2-chloropyridin-4-yl)-1H-pyrazol-3-yl]carbonyl}imidazolidin-4-one]	0.005	0.067	0.096
O=C1CN(C(=O)c2cc(-c3cc(F)cc(Cl)c3)n(-c3ccnc(Cl)c3)n2)CCN1 [Example 15, 4-{[5-(3-Chloro-5-fluorophenyl)-1-(2-chloropyridin-4-yl)-1H-pyrazol-3-yl]carbonyl}piperazin-2-one]	0.018	0.452	0.151
O=C1CN(C(=O)c2cc(-c3cc(F)cc(Cl)c3)n(-c3ccnc(C(F)(F)F)c3)n2)CN1 [Example 16, 1-({5-(3-Chloro-5-fluorophenyl)-1-[2-(trifluoromethyl)pyridin-4-yl]-1H-pyrazol-3-yl}carbonyl)imidazolidin-4-one]	0.055	0.339	0.49
O=C1CN(C(=O)c2cc(-c3cc(F)cc(Cl)c3)n(-c3ccnc(C(F)(F)F)c3)n2)CCN1 [Example 17]	0.248	> 3.3	3.67
